Measurements as given in patent US7799739B2, “Biphenylcarboxamides for controlling micro-organisms” (Bayer CropScience AG, priority 2005, dated 2010).
Values belong to the molecule of their own block, whether it stands above or below them.

How the values were obtained:
[1] = tested on: Uromyces appendiculatus; test: Uromyces test (bean)/protective; type: in vivo; settings: bean plants, protective spray, application rate 100 ppm, evaluation 10 days after inoculation
Method: (§1) To produce a suitable preparation of active compound, 1 part by weight of active compound is mixed with the stated amounts of solvents and emulsifier, and the concentrate is diluted with water to the desired concentration.
(§2) To test for protective activity, young plants are sprayed with the active compound preparation at the stated application rate. After the spray coating has dried on, the plants are inoculated with an aqueous spore suspension of the bean rust pathogen Uromyces appendiculatus and then remain in an incubation cabin at about 20° C. and 100% relative atmospheric humidity for 1 day. The plants are then placed in a greenhouse at about 21° C. and a relative atmospheric humidity of about 90%.
(§3) Evaluation is carried out 10 days after the inoculation. 0% means an efficacy which corresponds to that of the control, whereas an efficacy of 100% means that no infection is observed.

[2] = tested on: Puccinia recondita; test: Puccinia test (wheat)/protective; type: in vivo; settings: wheat plants, protective spray, application rate 1000 ppm, evaluation 10 days after inoculation
Method: To produce a suitable preparation of active compound, 1 part by weight of active compound is mixed with the stated amounts of solvent and emulsifier, and the concentrate is diluted with water to the desired concentration.
To test for protective activity, young plants are sprayed with the active compound preparation at the stated application rate. After the spray coating has dried on, the plants are sprayed with a conidia suspension of Puccinia recondita. The plants remain in an incubation cabin at 20° C. and 100% relative atmospheric humidity for 48 hours.
The plants are then placed in a greenhouse at a temperature of about 20° C. and a relative atmospheric humidity of 80% to promote the development of rust pustules.
as §3

[3] = tested on: Botrytis cinerea; test: Botrytis test (bean)/protective; type: in vivo; settings: bean plants, protective spray, application rate 100 ppm, evaluation 2 days after inoculation
Method: as §1
To test for protective activity, young plants are sprayed with the active compound preparation at the stated application rate. After the spray coating has dried on, 2 small pieces of agar colonized by Botrytis cinerea are placed onto each leaf. The inoculated plants are placed in a dark chamber at about 20° C. and 100% relative atmospheric humidity.
The size of the infected areas on the leaves is evaluated 2 days after the inoculation. 0% means an efficacy which corresponds to that of the control, whereas an efficacy of 100% means that no infection is observed.

[4] = tested on: Venturia inaequalis; test: Venturia test (apple)/protective; type: in vivo; settings: apple plants, protective spray, application rate 100 ppm, evaluation 10 days after inoculation
Method: as §1
as §2, with “conidia” for “spore”, “apple scab” for “bean rust”, “Venturia inaequalis” for “Uromyces appendiculatus”
as §3

[5] = logP determination by HPLC on reverse-phase column (C 18), EEC Directive 79/831 Annex V.A8; type: physicochemical; settings: reverse-phase HPLC column (C 18), pH 2.3, HPLC, 0.1% aqueous phosphoric acid/acetonitrile, 43° C.
Method: The logP values given in the Tables and Preparation Examples above are determined in accordance with EEC Directive 79/831 Annex V.A8 by HPLC (High Performance Liquid Chromatography) on a reverse-phase column (C 18). Temperature: 43° C.
The determination is carried out in the acidic range at pH 2.3 using the mobile phases 0.1% aqueous phosphoric acid and acetonitrile; linear gradient from 10% acetonitrile to 90% acetonitrile.
Calibration is carried out using unbranched alkan-2-ones (having 3 to 16 carbon atoms) with known logP values (determination of the logP values by the retention times using linear interpolation between two successive alkanones).

SMILES: COC(=O)c1ccc(-c2cc(F)ccc2NC(=O)c2cn(C)nc2C(F)F)cc1F [drawing 33]
- Efficacy in % [1]: 78%

SMILES: COC(=O)c1ccc(-c2cc(F)ccc2NC(=O)c2cn(C)nc2C(F)F)cc1F [drawing 35]
- Efficacy in % [2]: 90%

SMILES: COC(=O)c1ccc(-c2cc(F)ccc2NC(=O)c2cn(C)nc2C(F)(F)F)cc1F [drawing 31]
- Efficacy in % [3]: 78%

SMILES: COC(=O)c1ccc(-c2cc(F)ccc2NC(=O)c2cn(C)nc2C(F)F)cc1F [drawing 30]
- Efficacy in % [4]: 71%

SMILES: COC(=O)c1ccc(-c2cc(F)ccc2NC(=O)c2cn(C)nc2C(F)(F)F)cc1F [drawing 32]
- Efficacy in % [1]: 93%

- chromatographic logP ([5]; starting materials of formula (III)): 2.73
SMILES: COC(=O)c1ccc(-c2cc(F)ccc2N)cc1F [No. 9 (III), methyl 2′-amino-3,5′-difluorobiphenyl-4-carboxylate]

SMILES: COC(=O)c1ccc(-c2cc(F)ccc2NC(=O)c2cn(C)nc2C(F)(F)F)cc1F [drawing 34]
- Efficacy in % [2]: 100%

- chromatographic logP ([5]; compounds of formula (I)): 2.64
SMILES: COC(=O)c1ccc(-c2cc(F)ccc2NC(=O)c2cn(C)nc2C(F)(F)F)cc1F [No. 1, methyl 3,5′-difluoro-2′-({[1-methyl-3-(trifluoromethyl)-1H-pyrazol-4-yl]carbonyl}amino)biphenyl-4-carboxylate]
